{
  "source": "paper doi:10.1101/2021.02.17.431525v1",
  "about": "(biorxiv, 2021)",
  "molecular_target": "GRB2 (growth factor receptor bound protein 2) (Homo sapiens, UniProt P62993)",
  "sequence (P62993 whole entry)": "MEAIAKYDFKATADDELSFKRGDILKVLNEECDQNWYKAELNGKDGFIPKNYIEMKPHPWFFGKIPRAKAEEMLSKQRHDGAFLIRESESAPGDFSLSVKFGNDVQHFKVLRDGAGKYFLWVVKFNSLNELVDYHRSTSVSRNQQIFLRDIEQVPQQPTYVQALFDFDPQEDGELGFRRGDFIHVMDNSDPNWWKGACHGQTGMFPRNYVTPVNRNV",
  "assay": "biochemical",
  "data": [
    {"smiles": "CC(C)=CCC[C@](C)(O)[C@H]1CC[C@]2(C)[C@@H]1[C@H](O)C[C@@H]1[C@@]3(C)CC[C@H](O[C@@H]4O[C@H](CO)[C@@H](O)[C@H](O)[C@H]4O[C@@H]4O[C@H](CO)[C@@H](O)[C@H](O)[C@H]4O)C(C)(C)[C@@H]3CC[C@]12C", "note": "[ginsenoside Rg3]", "values": [
      {"measurement": "Kd", "value": "1.53 ± 0.11", "unit": "µM"}
    ]}
  ]
}
